Test results: patent publication US8952024B2, “Herbicidal pyrimidone derivatives” (E I du Pont de Nemours and Company, priority 2009, dated 2015)

Experiments:
Assay in all cases: Test D pre-/postemergence plant response
Assay type in all cases: in vivo
[1] = system: quackgrass (Elytrigia repens)
Source text: (§1) Seeds of plant species selected from bermudagrass (Cynodon dactylon), Surinam grass (Brachiaria decumbens), large crabgrass (Digitaria sanguinalis), green foxtail (Setaria viridis), goosegrass (Eleusine indica), johnsongrass (Sorghum halepense), kochia (Kochia scoparia), morningglory (pitted morningglory, Ipomoea lacunosa), nutsedge (purple nutsedge, Cyperus rotundus), ragweed (common ragweed, Ambrosia elatior), black mustard (Brassica nigra), guineagrass (Panicum maximum), dallisgrass (Paspalum dilatatum), barnyardgrass (Echinochloa crus-galli), sandbur (southern sandbur, Cenchrus echinatus), sowthistle (common sowthistle, Sonchus oleraceous), prickly sida (Sida spinosa), Italian ryegrass (Lolium multiflorum), purslane (common purslane, Portulaca oleracea), signalgrass (broadleaf signalgrass, Brachiaria platyphylla), groundsel (common groundsel, Senecio vulgaris), chickweed (common chickweed, Stellaria media), dayflower (Virginia (VA) dayflower, Commelina virginica), bluegrass (annual bluegrass, Poa annua), naked crabgrass (Digitaria nuda), itchgrass (Rottboellia cochinchinensis), quackgrass (Elytrigia repens), field bindweed (Convolvulus arvensis), spanishneedles (Bidens bipinnata), mallow (common mallow, Malva sylvestris) and Russian thistle (Salsola kali), were planted into a blend of loam soil and sand and treated preemergence with test chemicals formulated in a non-phytotoxic solvent mixture which included a surfactant. At the same time, plants from these weed species were treated with postemergence applications of the test chemicals formulated in the same manner. Plants ranged in height from 2 to 18 cm (1- to 4-leaf stage) for postemergence treatments.
(§2) Treated plants and controls were maintained in a greenhouse for 14 to 21 days, after which time all species were visually evaluated and compared to controls. Plant response ratings, summarized in Table D, are based on a scale of 0 to 100 where 0 is no effect and 100 is complete control. A dash (-) response means no test result.

[2] = system: groundsel (common groundsel, Senecio vulgaris); details: Postemergence
Source text: as §1, §2

[3] = system: bermudagrass (Cynodon dactylon)
Source text: as §1, §2

[4] = system: spanishneedles (Bidens bipinnata)
Source text: as §1, §2

[5] = system: dallisgrass (Paspalum dilatatum)
Source text: as §1, §2

[6] = system: sandbur (southern sandbur, Cenchrus echinatus)
Source text: as §1, §2

[7] = system: Russian thistle (Salsola kali)
Source text: as §1, §2

[8] = system: dayflower (Virginia (VA) dayflower, Commelina virginica)
Source text: as §1, §2

[9] = system: prickly sida (Sida spinosa)
Source text: as §1, §2

[10] = system: ragweed (common ragweed, Ambrosia elatior)
Source text: as §1, §2

[11] = Postemergence, 31 g ai/ha, scale 0 to 100
[12] = Postemergence, 62 g ai/ha, scale 0 to 100 (0 no effect, 100 complete control)
[13] = Postemergence, 125 g ai/ha, scale 0 to 100 (0 no effect, 100 complete control)
[14] = Postemergence, 16 g ai/ha, scale 0 to 100
[15] = Preemergence, 16 g ai/ha, scale 0 to 100, 0 no effect, 100 complete control
[16] = Preemergence, 31 g ai/ha, scale 0 to 100 (0 no effect, 100 complete control)
[17] = Preemergence, 125 g ai/ha, scale 0 to 100
[18] = 62 g ai/ha, scale 0 to 100 (0 no effect, 100 complete control)
[19] = 125 g ai/ha, scale 0 to 100 (0 no effect, 100 complete control)
[20] = Postemergence, 31 g ai/ha, scale 0 to 100 (0 no effect, 100 complete control)
[21] = Preemergence, 62 g ai/ha, scale 0 to 100
[22] = Preemergence, rate not given, scale 0 to 100, 0 no effect, 100 complete control
[23] = Postemergence, 250 g ai/ha, scale 0 to 100 (0 no effect, 100 complete control)

COCCn1c(-c2cccc(C)c2)ncc(C(=O)C2=C(O)C3CCC(C3)C2=O)c1=O (stereo not shown) [Compound 233]
Plant response rating, Quackgrass [1, 11]: 0 | Plant response rating, Quackgrass [1, 12]: 10 | Plant response rating, Quackgrass [1, 13]: 25 | Plant response rating, Quackgrass [1, 14]: 0 | Plant response rating, Quackgrass [1, 15]: 0 | Plant response rating, Quackgrass [1, 16]: 0 | Plant response rating, Quackgrass [1, 17]: 0 | Plant response rating, Groundsel ([2]; 31 g ai/ha, scale 0 to 100): 50 | Plant response rating, Groundsel [2, 18]: 90 | Plant response rating, Groundsel [2, 19]: 100 | Plant response rating, Groundsel ([2]; 16 g ai/ha, scale 0 to 100): 30 | Plant response rating, Bermudagrass [3, 20]: 70 | Plant response rating, Bermudagrass [3, 12]: 70 | Plant response rating, Bermudagrass [3, 13]: 70 | Plant response rating, Bermudagrass [3, 14]: 70 | Plant response rating, Bermudagrass [3, 15]: 5 | Plant response rating, Bermudagrass [3, 16]: 5 | Plant response rating, Bermudagrass [3, 21]: 85 | Plant response rating, Bermudagrass [3, 17]: 85 | Plant response rating, Spanishneedles [4, 11]: 35 | Plant response rating, Spanishneedles [4, 12]: 50 | Plant response rating, Spanishneedles [4, 13]: 60 | Plant response rating, Spanishneedles [4, 14]: 35 | Plant response rating, Spanishneedles [4, 15]: 0 | Plant response rating, Spanishneedles [4, 16]: 50 | Plant response rating, Spanishneedles [4, 17]: 95 | Plant response rating, Spanishneedles [4, 22]: 85 | Plant response rating, Dallisgrass [5, 11]: 10 | Plant response rating, Dallisgrass [5, 12]: 10 | Plant response rating, Dallisgrass [5, 13]: 35 | Plant response rating, Dallisgrass [5, 14]: 0 | Plant response rating, Dallisgrass [5, 15]: 0 | Plant response rating, Dallisgrass [5, 16]: 0 | Plant response rating, Dallisgrass [5, 21]: 0 | Plant response rating, Dallisgrass [5, 17]: 35 | Plant response rating, Sandbur [6, 11]: 65 | Plant response rating, Sandbur [6, 12]: 70 | Plant response rating, Sandbur [6, 13]: 75 | Plant response rating, Sandbur [6, 14]: 30 | Plant response rating, Sandbur [6, 15]: 0 | Plant response rating, Sandbur [6, 16]: 0 | Plant response rating, Sandbur [6, 17]: 85 | Plant response rating, Russian Thistle [7, 13]: 10 | Plant response rating, Russian Thistle [7, 14]: 0 | Plant response rating, Russian Thistle [7, 15]: 50 | Plant response rating, Russian Thistle [7, 16]: 65 | Plant response rating, Russian Thistle [7, 17]: 100 | Plant response rating, Russian Thistle [7, 22]: 75 | Plant response rating, Dayflower, VA [8, 11]: 35 | Plant response rating, Dayflower, VA [8, 12]: 35 | Plant response rating, Dayflower, VA [8, 13]: 60 | Plant response rating, Dayflower, VA [8, 14]: 15 | Plant response rating, Dayflower, VA [8, 15]: 0 | Plant response rating, Dayflower, VA [8, 16]: 80 | Plant response rating, Dayflower, VA [8, 21]: 100 | Plant response rating, Dayflower, VA [8, 17]: 100 | Plant response rating, Prickly Sida [9, 11]: 50 | Plant response rating, Prickly Sida [9, 12]: 50 | Plant response rating, Prickly Sida [9, 13]: 60 | Plant response rating, Prickly Sida [9, 14]: 30 | Plant response rating, Prickly Sida [9, 15]: 0 | Plant response rating, Prickly Sida [9, 16]: 0 | Plant response rating, Prickly Sida [9, 21]: 0 | Plant response rating, Prickly Sida [9, 17]: 70 | Plant response rating, Ragweed [10, 11]: 75 | Plant response rating, Ragweed [10, 12]: 75 | Plant response rating, Ragweed [10, 13]: 98 | Plant response rating, Ragweed [10, 14]: 65 | Plant response rating, Ragweed [10, 15]: 50 | Plant response rating, Ragweed [10, 16]: 70 | Plant response rating, Ragweed [10, 17]: 98 | Plant response rating, Ragweed [10, 22]: 95

COCCn1c(-c2cccc(F)c2)ncc(C(=O)C2=C(O)C3CCC(C3)C2=O)c1=O (stereo not shown) [Compound 235]
Plant response rating, Quackgrass [1, 11]: 5 | Plant response rating, Quackgrass [1, 12]: 30 | Plant response rating, Quackgrass [1, 13]: 40 | Plant response rating, Quackgrass [1, 23]: 70 | Plant response rating, Groundsel ([2]; 31 g ai/ha, scale 0 to 100): 100 | Plant response rating, Groundsel [2, 18]: 100 | Plant response rating, Groundsel [2, 19]: 100 | Plant response rating, Groundsel ([2]; 250 g ai/ha, scale 0 to 100 (0 no effect, 100 complete control)): 100 | Plant response rating, Bermudagrass [3, 20]: 80 | Plant response rating, Bermudagrass [3, 12]: 95 | Plant response rating, Bermudagrass [3, 13]: 95 | Plant response rating, Bermudagrass [3, 23]: 95 | Plant response rating, Spanishneedles [4, 11]: 65 | Plant response rating, Spanishneedles [4, 12]: 70 | Plant response rating, Spanishneedles [4, 13]: 80 | Plant response rating, Spanishneedles [4, 23]: 85 | Plant response rating, Dallisgrass [5, 11]: 70 | Plant response rating, Dallisgrass [5, 12]: 75 | Plant response rating, Dallisgrass [5, 13]: 80 | Plant response rating, Dallisgrass [5, 23]: 80 | Plant response rating, Sandbur [6, 11]: 75 | Plant response rating, Sandbur [6, 12]: 75 | Plant response rating, Sandbur [6, 13]: 75 | Plant response rating, Sandbur [6, 23]: 75 | Plant response rating, Russian Thistle [7, 11]: 30 | Plant response rating, Russian Thistle [7, 12]: 30 | Plant response rating, Russian Thistle [7, 13]: 50 | Plant response rating, Russian Thistle [7, 23]: 60 | Plant response rating, Dayflower, VA [8, 11]: 60 | Plant response rating, Dayflower, VA [8, 12]: 70 | Plant response rating, Dayflower, VA [8, 13]: 75 | Plant response rating, Dayflower, VA [8, 23]: 75 | Plant response rating, Prickly Sida [9, 11]: 65 | Plant response rating, Prickly Sida [9, 12]: 65 | Plant response rating, Prickly Sida [9, 13]: 70 | Plant response rating, Prickly Sida [9, 23]: 75 | Plant response rating, Ragweed [10, 11]: 70 | Plant response rating, Ragweed [10, 12]: 70 | Plant response rating, Ragweed [10, 13]: 80 | Plant response rating, Ragweed [10, 23]: 80
